PMC12059629, “N-Terminal domain homologs of the orange carotenoid protein increase quenching of cyanobacterial phycobilisomes” (Plant Physiology, 2024)

Target: T1, HCP4 (AnHCP4, holo-HCP4) (Nostoc sp. PCC 7120 = FACHB-418, UniProt Q8YMJ2)
T1 construct: gene all4941; C-terminal His-tag (pCDF-all4941-Ctag), expressed in E. coli BL21(DE3) with pAC-CANthipi; holo separated from apo on MonoQ
T1 sequence (Q8YMJ2 1-171): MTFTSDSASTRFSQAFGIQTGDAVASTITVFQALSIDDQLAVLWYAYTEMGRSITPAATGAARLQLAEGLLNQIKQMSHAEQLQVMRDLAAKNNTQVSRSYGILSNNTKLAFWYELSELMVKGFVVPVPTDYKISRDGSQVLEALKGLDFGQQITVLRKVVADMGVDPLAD
Test: holoprotein purified from carotenoid-producing E. coli; separated from apoprotein by anion exchange; absorbance at […] nm
Type: binding
Settings: 50 mM Tris pH 8; 1:1 HCP4:CAN ratio used for quantification

In the case of `CC1=C(/C=C/C(C)=C/C=C/C(C)=C/C=C/C=C(C)/C=C/C=C(C)/C=C/C2=C(C)C(=O)CCC2(C)C)C(C)(C)CCC1=O` [canthaxanthin], the “holoprotein purified from carotenoid-producing E. coli; separated from apoprotei” value is reported as “For HCP4, the holoprotein was eluted in the flow through and column wash”.
